Holding throughout (assay): microbe, parasite or virus in culture
What all share (type): cell-based

Test [1] deals with HCVpp GT-1a (pseudotyped HCV GT1a particles, E1 and E2 envelope proteins of GT1a H77 strain). The settings on record: Hepatitis C virus, 72 h, read-out: HCVpp GT-1a (EC50, μM).
Test [2] relates to VSVpp (pseudotyped VSV G particles). Particulars: Vesicular stomatitis virus, 72 h, read-out: VSVpp (EC50, μM).
Test [3] deals with HCVpp GT-1b (pseudotyped HCV GT1b particles, E1 and E2 envelope proteins of GT1b Con1 strain). Particulars: Hepatitis C virus, 72 h, read-out: HCVpp GT-1b (EC50, μM).

The record followed here is patent US20160002180A1, “ANTIVIRAL COMPOUNDS” (priority 2013, published 2016).

In the case of `Clc1cc(Nc2ncn[nH]2)cc(Cl)c1Br` [Compound 18, (4-Bromo-3,5-dichloro-phenyl)-(2H-[1,2,4]triazol-3-yl)-amine], the EC50 in test [1] was determined as 0.252 µM; in test [2], 22.4 µM; in test [3] it was 2.52 µM.
For `COCc1n[nH]c(Nc2cc(Cl)cc(Cl)c2)n1` [Compound 5, (3,5-Dichloro-phenyl)-(5-methoxymethyl-2H-[1,2,4]triazol-3-yl)-amine], in that order: 4.13 µM, 100 µM and 24.2 µM.
As for `CS(=O)(=O)c1n[nH]c(Nc2cc(Cl)cc(Cl)c2)n1` [Compound 13, (3,5-Dichloro-phenyl)-(5-methanesulfonyl-2H-[1,2,4]triazol-3-yl)-amine], the EC50 in test [1] and in test [2] was 100 µM throughout.
As to `Fc1c(Cl)cc(Nc2n[nH]c(N3CCOCC3)n2)cc1Cl` [Compound 31, (3,5-Dichloro-4-fluoro-phenyl)-(5-morpholin-4-yl-1H-[1,2,4]triazol-3-yl)-amine], the EC50 in test [1] is 25.8 µM; in test [2], 29.9 µM.
Regarding `Clc1cc(Cl)cc(Nc2ncnn2Cc2ccccc2)c1` [Compound 24, (2-Benzyl-2H-[1,2,4]triazol-3-yl)-(3,5-dichloro-phenyl)-amine], the values for the EC50 in test [1], in test [2] and in test [3] were 27.1 µM, 34.9 µM and 32.5 µM, respectively.
For `Fc1c(Cl)cc(Nc2ncn(Cc3ccccc3)n2)cc1Cl` [Compound 27, (1-Benzyl-1H-[1,2,4]triazol-3-yl)-(3,5-dichloro-4-fluoro-phenyl)-amine], the EC50 in test [1] amounted to 6.13 µM; in test [2], 9.11 µM; in test [3], 8.91 µM.
For `COCc1n[nH]c(Nc2cc(Cl)nc(Cl)c2)n1` [Compound 6, (2,6-Dichloro-pyridin-4-yl)-(5-methoxymethyl-2H-[1,2,4]triazol-3-yl)-amine], in that order: 4.59 µM, 100 µM and 35.5 µM.
For `Fc1c(Cl)cc(Nc2ncnn2Cc2ccccc2)cc1Cl` [Compound 26, (2-Benzyl-2H-[1,2,4]triazol-3-yl)-(3,5-dichloro-4-fluoro-phenyl)-amine], in that order: 16.2 µM, 17.5 µM and 27.1 µM.
For `CC(C)Cc1nc(Nc2cc(Cl)cc(Cl)c2)n[nH]1` [Compound 33, (3,5-Dichloro-phenyl)-(5-isobutyl-1H-[1,2,4]triazol-3-yl)-amine], in that order: 1.26 µM, 100 µM and 61.7 µM.
Turning to `Clc1cc(Cl)cc(Nc2ncn(Cc3ccccc3)n2)c1` [Compound 23, (1-Benzyl-1H-[1,2,4]triazol-3-yl)-(3,5-dichloro-phenyl)-amine], the figures for the EC50 in test [1], in test [2] and in test [3] were 28.9 µM, 46.5 µM and 53 µM, respectively.
For `Fc1c(Cl)cc(Nc2nc[nH]n2)cc1Cl` [Compound 28, (3,5-Dichloro-4-fluoro-phenyl)-(1H-[1,2,4]triazol-3-yl)-amine], in that order: 0.477 µM, 84.1 µM and 3.77 µM.
With `CC(C)c1nc(Nc2cc(Cl)cc(Cl)c2)n[nH]1` [Compound 32, (3,5-Dichloro-phenyl)-(5-isopropyl-1H-[1,2,4]triazol-3-yl)-amine], the EC50 in test [1] is 22.1 µM; in test [2], 33.8 µM.
Regarding `COc1n[nH]c(Nc2cc(Cl)c(Br)c(Cl)c2)n1` [Compound 11, (4-Bromo-3,5-dichloro-phenyl)-(5-methoxy-2H-[1,2,4]triazol-3-yl)-amine], the results for the EC50 in test [1], in test [2] and in test [3] were 2.1 µM, 12.7 µM and 7.23 µM, respectively.
For the compound `CS(=O)(=O)c1n[nH]c(Nc2cc(Cl)c(Br)c(Cl)c2)n1` [Compound 14, (4-Bromo-3,5-dichloro-phenyl)-(5-methanesulfonyl-2H-[1,2,4]triazol-3-yl)-amine], the EC50 in test [1] and in test [2] was 100 µM each time.
As for `Clc1cc(Cl)cc(Nc2n[nH]c(Cc3ccccc3)n2)c1` [Compound 34, (5-Benzyl-1H-[1,2,4]triazol-3-yl)-(3,5-dichloro-phenyl)-amine], the EC50 in test [1] came to 0.785 µM; in test [2], 38.9 µM; in test [3], 13.5 µM.
On to `NCc1nc(Nc2cc(Cl)cc(Cl)c2)n[nH]1` [Compound 3, (5-Aminomethyl-1H-[1,2,4]triazol-3-yl)-(3,5-dichloro-phenyl)-amine], for which the EC50 in test [2] and in test [3] was 100 µM each time.
Consider `COc1n[nH]c(Nc2cc(Cl)nc(Cl)c2)n1` [Compound 9, (2,6-Dichloro-pyridin-4-yl)-(5-methoxy-2H-[1,2,4]triazol-3-yl)-amine], for which the EC50 in test [1] is 13.2 µM; in test [2], 98 µM; in test [3], 45.3 µM.
For `Clc1cc(Cl)cc(Nc2nc[nH]n2)c1` [Compound 25, (3,5-Dichloro-phenyl)-(1H-[1,2,4]triazol-3-yl)-amine], in that order: 1.06 µM, 97 µM and 5.17 µM.
For `CNc1nc(Nc2ccc(C#N)c(C(F)(F)F)c2)n[nH]1` [Compound 21, 4-(5-Methylamino-1H-[1,2,4]triazol-3-ylamino)-2-trifluoromethyl-benzonitrile], in that order: 1.26 µM, 24.9 µM and 5.01 µM.
Turning to `Clc1cc(Nc2ncn[nH]2)cc(Cl)c1Cl` [Compound 17, (2H-[1,2,4]Triazol-3-yl)-(3,4,5-trichloro-phenyl)-amine], the results for the EC50 in test [1] and in test [2] were 0.392 µM and 28.2 µM, respectively.
With `Nc1cccc(Nc2ncn(Cc3ccccc3)n2)c1` [Compound 29, N-(1-Benzyl-1H-[1,2,4]triazol-3-yl)-benzene-1,3-diamine], the EC50 was determined as 95 µM in test [1], 100 µM in test [2] and 87.2 µM in test [3].
For `N#Cc1c(Cl)cc(Nc2ncn[nH]2)cc1Cl` [Compound 20, 2,6-Dichloro-4-(2H-[1,2,4]triazol-3-ylamino)-benzonitrile], in that order: 0.121 µM, 100 µM and 1.66 µM.
For `COc1n[nH]c(Nc2ccc(C#N)c(C(F)(F)F)c2)n1` [Compound 10, 4-(5-Methoxy-2H-[1,2,4]triazol-3-ylamino)-2-trifluoromethyl-benzonitrile], in that order: 7.53 µM, 8.3 µM and 7.83 µM.
For `COc1n[nH]c(Nc2cc(Cl)cc(Cl)c2)n1` [Compound 8, (3,5-Dichloro-phenyl)-(5-methoxy-2H-[1,2,4]triazol-3-yl)-amine], in that order: 15.9 µM, 100 µM and 52.6 µM.
Consider `CN(C)c1nc(Nc2cc(Cl)c(Br)c(Cl)c2)n[nH]1` [Compound 16, N^3-(4-Bromo-3,5-dichloro-phenyl)-N^5,N^5-dimethyl-1H-[1,2,4]triazole-3,5-diamine], for which the EC50 was found to be 1.58 µM in test [1] and 43.1 µM in test [2].
As for `Fc1n[nH]c(Nc2cc(Cl)cc(Cl)c2)n1` [Compound 4, (3,5-Dichloro-phenyl)-(5-fluoro-2H-[1,2,4]triazol-3-yl)-amine], the EC50 in test [1] worked out at 28.7 µM; in test [2] it was 30.9 µM; in test [3], 30.1 µM.
With `CNc1nc(Nc2cc(Cl)cc(Cl)c2)n[nH]1` [Compound 19, N^3-(3,5-Dichloro-phenyl)-N^5-methyl-1H-[1,2,4]triazole-3,5-diamine], the results for the EC50 in test [1] and in test [2] were 3.41 µM and 100 µM, respectively.
Regarding `Clc1cc(Cl)cc(Nc2nc(Br)n[nH]2)c1` [Compound 7, (5-Bromo-2H-[1,2,4]triazol-3-yl)-(3,5-dichloro-phenyl)-amine], the EC50 in test [1] worked out at 16.5 µM; in test [2] it was 28.2 µM; in test [3] it was 20.8 µM.
For the compound `Clc1cc(Nc2nc[nH]n2)cc(Cl)n1` [Compound 30, (2,6-Dichloro-pyridin-4-yl)-(1H-[1,2,4]triazol-3-yl)-amine], the results for the EC50 in test [1] and in test [2] were 1.06 µM and 100 µM, respectively.
For `Clc1cc(Cl)cc(Nc2nc(Cl)n[nH]2)c1` [Compound 12, (5-Chloro-2H-[1,2,4]triazol-3-yl)-(3,5-dichloro-phenyl)-amine], in that order: 13.8 µM and 14 µM.
As for `Cc1nc(Nc2cc(Cl)cc(Cl)c2)n[nH]1` [Compound 1, (3,5-Dichloro-phenyl)-(5-methyl-1H-[1,2,4]triazol-3-yl)-amine], the EC50 in test [1] stood at 1.99 µM; in test [2], 100 µM; in test [3] it was 6.25 µM.
For `Clc1cc(Cl)cc(Nc2n[nH]c(-c3ccccc3)n2)c1` [Compound 2, (3,5-Dichloro-phenyl)-(5-phenyl-1H-[1,2,4]triazol-3-yl)-amine], in that order: 26.7 µM, 30.1 µM and 27.5 µM.
Consider `CN(C)c1nc(Nc2cc(Cl)cc(Cl)c2)n[nH]1` [Compound 15, N^3-(3,5-Dichloro-phenyl)-N^5,N^5-dimethyl-1H-[1,2,4]triazole-3,5-diamine], for which the EC50 turned out to be 24.8 µM in test [1] and 100 µM in test [2].
With `FC(F)(F)c1nc(Nc2cc(Cl)cc(Cl)c2)n[nH]1` [Compound 22, (3,5-Dichloro-phenyl)-(5-trifluoromethyl-1H-[1,2,4]triazol-3-yl)-amine], the EC50 turned out to be 5.5 µM in test [1], 6.7 µM in test [2] and 5.63 µM in test [3].

As a reminder, the EC50 is the concentration giving half of the maximal effect.
